Test results published in patent US8088819B2, “Derivatives of substituted 3-phenyl-1-(phenylthienyl)propan-1-ones and of 3-phenyl-1-(phenylfuranyl) propan-1-ones, preparation and use” (priority 2006, dated 2012).

Test system: target genes of the PPARs
Experiment: Expression of PPARδ target genes in skeletal muscle of the C57Bl6 mouse (compound 2), quantitative RT-PCR
Assay type: in vivo
Conditions: C57Bl6 mice; 50 mpk; 14 days
Source text: The PPARδ agonistic properties of the molecules according to the invention previously measured in vitro should be reflected at the level of the skeletal muscle in an overexpression of the target genes directly under the control of the PPARδ receptor: the genes that were investigated in this experiment are the genes coding for UCP2 (uncoupling protein 2, mitochondrial transporter involved in thermoregulation) and PDK4 (pyruvate dehydrogenase kinase isoform 4, enzyme of carbohydrate metabolism).
Female C57Bl6 mice were kept under a cycle of light and darkness of 12/12 hours at a constant temperature of 20±3° C. After acclimation for one week, the mice were weighed and put into groups of 6 animals selected so that the distribution of their body weight, of their plasma lipid levels and of total cholesterol determined for the first time before the experiment, is uniform. […]
1 μg of total RNA (quantified on the basis of the spectrophotometer reading) was then reverse-transcribed to complementary DNA by reaction for 1 hour at 37° C. in a total volume of 30 μl containing buffer 1× (Invitrogen), 1.5 mM of DTT, 0.18 mM of dNTPs (Promega), 200 ng of pdN6 (Amersham), 30 U of RNase inhibitor (Promega) and 1 μl of MMLV-RT (Invitrogen). […]
The amount of fluorescence emitted is directly proportional to the amount of complementary DNA present at the start of the reaction and amplified during PCR. […]

CC(C)(Oc1ccc(CCC(=O)c2ccc(-c3ccc(C(F)(F)F)cc3)s2)c(Cl)c1Cl)C(=O)O [Compound 2, 2-(2,3-dichloro-4-(3-oxo-3-(5-(4-(trifluoromethyl)phenyl)thien-2-yl)propyl)phenoxy)-2-methylpropanoic acid]
expression of the gene coding for PDK4 in skeletal muscle: significant increase
expression of the gene coding for UCP2 in skeletal muscle: significant increase
